5 substances from patent US8258258B2, “Dimeric or multimeric microproteins” (BioNTech AG, priority 2005, dated 2012) can be followed below.

Sequence of TPOR/4Rα hybrid receptor (P40238 26-491 limits assumed): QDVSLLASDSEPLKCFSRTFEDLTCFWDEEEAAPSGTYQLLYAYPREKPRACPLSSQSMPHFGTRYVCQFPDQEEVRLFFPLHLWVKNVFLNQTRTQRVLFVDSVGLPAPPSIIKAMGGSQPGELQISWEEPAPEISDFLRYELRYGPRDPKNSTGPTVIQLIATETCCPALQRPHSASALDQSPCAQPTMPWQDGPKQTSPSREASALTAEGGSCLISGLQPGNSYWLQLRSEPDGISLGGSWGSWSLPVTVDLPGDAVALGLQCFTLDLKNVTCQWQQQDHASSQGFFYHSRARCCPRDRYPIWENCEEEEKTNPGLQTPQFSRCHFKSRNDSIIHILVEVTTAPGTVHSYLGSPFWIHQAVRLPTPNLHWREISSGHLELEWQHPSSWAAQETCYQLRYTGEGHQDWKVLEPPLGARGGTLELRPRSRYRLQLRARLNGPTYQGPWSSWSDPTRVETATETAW

The test system of one test is TPOR/4Rα hybrid receptor. The experiment in a line: Ba/F3 luciferase reporter gene assay, TPO competition (antagonist activity). Type of test: cell-based, human. The following applies: 5 nM TPO and 500 nM of each compound; FIG. 3. How it is done:
The expression vector for the TPOR/4Rα hybrid receptor, pcDNATPOR/4Rα, was constructed as follows. A PCR reaction was performed on a cDNA clone containing the human TPO receptor coding sequence using oligonucleotides TpoR-Xho-lo (5′-[…]-3′; SEQ ID NO.: 18) and TpoR-Xho-up (5′-[…]-3′; SEQ ID No.: 19). The resulting PCR product was digested with XhoI and ligated into similarly digested vector pASKcDNA-NH to yield pASKcDNA-NH-TPOR. pASKcDNA-NH resulted from the subcloning of an NheI/HindIII fragment of pcDNA/4Rα (Krause et al., 2004) in pASK21TETIsendc1/2 (Christmann et al., 1999). From the vector pASKcDNA-NH-TPOR the NheI/HindIII fragment containing the TPOR coding sequence was ligated to similarly digested pcDNA/4Rα to yield pcDNATPOR/4Rα. The STAT6 reporter gene construct pIεTATALuc was generated by insertion of a synthetic Hind III/Bam HI fragment representing the entire promoter/enhancer-sequence from the IL-4 responsive region of the human Iε promoter (Ezernieks et al., 1996) into luciferase expression plasmid pTATALuc+ (Altschmied et al., 1997).
The murine pre-B cell line Ba/F3 was cultured as described (Lischke et al., 1995). Cells were transfected using the cell line Nucleofector™ kit V (Amaxa, Germany). Briefly, 8×10^6 cells were starved for 2 h in RPMI 1640/10% FCS, centrifuged and resuspended in 100 μl of transfection reagent V supplemented with 4 μg of expression vector pcDNATPOR/4Rα and 1 μg of reporter gene construct pIεTATALuc. Transfection was performed with the Nucleofector™ device applying program T16. Each transfection batch was recovered in 3.5 ml RPMI 1640/10% FCS and seeded at 2×10^5 cells/100 μl per well in a 96-well cell culture plate. Cells were left untreated for 1 h and then supplemented with various concentrations of hTPO (Immunotools, Germany) and individual microprotein candidates, respectively, to a total volume of 200 μl. For TPO competition assays cell aliquots were preincubated with individual microprotein samples 1 hour before stimulation with hTPO. After incubation for 12 h at 37° C., 5% CO2, cell lysates were prepared and luciferase activity was measured as described previously (Krause et al., 2004).
These cells were transfected with a gene encoding a fusion of the hTPOR extracellular domain and the intracellular 4Rα domain from human […] and co-transfected with a reporter gene construct pIεTATALuc (Krause et al., 2004). […] The same result was obtained for SE-AG-TP-040 in some assays. On the other hand, agonistic activity was shown for all the microproteins so far tested (Table 1).
(A reporter such as luciferase makes a cellular process visible.)
Take “GCVRLHESCLGQQVPCCDPAATCGGTALAiegptlrqwlaaraCKGS (GCVRLHESCLGQQVPCCDPAATCGGTALAIEGPTLRQWLAARACKGS) [SE-AG-TP-040]”: the “Inhibition of TPO receptor activation (TPO antagonist)” value (from here on “Inhibition of TPO receptor activation”) is on record as “able to act as TPO antagonists”.
Consider “GCVRLHESCLGQQVPCCDPAATCiegptlrqwlaaraCKGS (GCVRLHESCLGQQVPCCDPAATCIEGPTLRQWLAARACKGS) [SE-AG-TP-030]”, for which the “Inhibition of TPO receptor activation” value was “able to act as TPO antagonists”.
On the same count and under the same terms, under “GCiegptlrqwlaaCKQDSDCLAGCVCGPNGFCGS (GCIEGPTLRQWLAACKQDSDCLAGCVCGPNGFCGS) [SE-ET-TP-030]” stands “able to act as TPO antagonists”.
Take “GCiegptlrqwlaaraCKQDSDCLAGCVCGPNGFCGS (GCIEGPTLRQWLAARACKQDSDCLAGCVCGPNGFCGS) [SE-ET-TP-020]”: the “Inhibition of TPO receptor activation” value was “able to act as TPO antagonists”.
The same measure, in the same setting: the result for “iegptlrqwlaara (IEGPTLRQWLAARA) [SE-LN-TP-020, reference compound]” reads “able to act as TPO antagonists”.

For another test, the system named is platelet count. Kind of test: In vivo platelet expansion test. As to conditions: Balb/c mice, 10 and 1000 μg/kg twice daily s.c., after 5 days; FIG. 7. How it is done: To assess the in vivo function of SE-ET-TP-020, Balb/c mice (n=5) were treated twice daily with 10 and 1000 μg/kg, respectively, SE-ET-TP-020 by subcutaneous injection. After 5 days, platelet count was measured in comparison to corresponding placebo experiments.
On to “GCiegptlrqwlaaraCKQDSDCLAGCVCGPNGFCGS (GCIEGPTLRQWLAARACKQDSDCLAGCVCGPNGFCGS) [SE-ET-TP-020]”, for which the “Platelet count versus placebo” value is “doubling of the platelet count”.
